Test results from patent US5124167A, “Anti-oxidant compositions containing fat” (Bar-Ilan University, priority 1990, dated 1992).

The compounds below were run on skin of adult mice (level of peroxides) (assay: Peroxide level (TBA test) in skin of adult mice after cream application). Details: 0.1% dissolved in Oil of Olay, similar experiments.
Format: in vivo
Experimental: The plants that may be utilized as a source of the water soluble extract include the plant tissues of selected species such as the stems and green leaves selected from the group consisting of Spinacia, Trifolium, Medicago, Zea, Penicillaria, Algae, and Nicotiana. Other plants may be utilized if an aqueous extract of the green leaves provide an antioxidant effect when it is applied to skin. The antioxidant effect is determined by the thiobarbituric acid (TBA) test. This test is described in Food Res. V. 23, P 620 (1958). Generally the level of peroxide in the skin may be determined by assay of a sample of untreated skin which is peeled from a test animal. A preweighed sample of from 10 to 50 mg is homogenized in 0.2 M phosphate buffer pH 6.5 and centrifuged. The supernatant is collected and the peroxide level is determined using the TBA test. A sample of skin from the same animal which has been treated according to the invention is also peeled and the peroxide level is determined. A reduction in the peroxide level of about 35% when an antioxidant obtained from a plant is applied as 0.5% w/w dispersion in a petrolatum base is the criteria for determining if a given plant extract is useful according to the present invention.
Samples of creams and appropriate controls were applied to mice or rat skin for a fixed period. The application was done once a day. Experiments were terminated by killing the animals, peeling the skin and freezing it in liquid nitrogen. Samples of the frozen skin were homogenized in 0.2M phosphate buffer, pH 6.5. After centrifugation the supernatant was collected and analyzed for the peroxide value using the TBA (Thiobarbituric acid) test as described by Sinnhuber, et al. Food Res. V. 23, p 620 (1958).
In these experiments adult mice (2months old) were treated as described in Example 2. The grown mice were shaved before applying the creams to the skin.
In this experiment the antioxidant was dissolved in Oil of Olay. Mice were sacrificed after 21 days.

SMILES | effect on the level of peroxides in the skin
COc1ccc(O)c(C(C)(C)C)c1 [BHA, butylated hydroxy anisole] | no reduction of the peroxides was observed
Cc1c(C)c2c(c(C)c1O)CCC(C)(CCCC(C)CCCC(C)CCCC(C)C)O2 (stereo not drawn) [alpha tocopherol] | no reduction of the peroxides was observed
Cc1cc(C(C)(C)C)c(O)c(C(C)(C)C)c1 [BHT, butylated hydroxy toluene] | no reduction of the peroxides was observed
